Experimental findings from article PMC11022729 (Advanced Science, 2024) are described below.

One data set deals with IB4-binding DRG neurons. The experiment in a line: Whole-cell current-clamp recordings on sensitized DRG neurons. The settings on record: 50 µM. It counts as cell-based, mouse.
Data set [1] deals with voltage-dependent Na+ channels in IB4-binding sensory neurons. The experiment in a line: Tetrodotoxin-resistant Na+ currents in DRG neurons (patch-clamp). It counts as cell-based, mouse. The settings on record: 50 µM. In general terms: In patch-clamp work, channel activity is measured electrically.
The next data set concerns the target T1, human Slack (Homo sapiens, UniProt Q5JUK3).
T1 construct: host or cells: HEK293
T1 sequence (Q5JUK3 1-1230): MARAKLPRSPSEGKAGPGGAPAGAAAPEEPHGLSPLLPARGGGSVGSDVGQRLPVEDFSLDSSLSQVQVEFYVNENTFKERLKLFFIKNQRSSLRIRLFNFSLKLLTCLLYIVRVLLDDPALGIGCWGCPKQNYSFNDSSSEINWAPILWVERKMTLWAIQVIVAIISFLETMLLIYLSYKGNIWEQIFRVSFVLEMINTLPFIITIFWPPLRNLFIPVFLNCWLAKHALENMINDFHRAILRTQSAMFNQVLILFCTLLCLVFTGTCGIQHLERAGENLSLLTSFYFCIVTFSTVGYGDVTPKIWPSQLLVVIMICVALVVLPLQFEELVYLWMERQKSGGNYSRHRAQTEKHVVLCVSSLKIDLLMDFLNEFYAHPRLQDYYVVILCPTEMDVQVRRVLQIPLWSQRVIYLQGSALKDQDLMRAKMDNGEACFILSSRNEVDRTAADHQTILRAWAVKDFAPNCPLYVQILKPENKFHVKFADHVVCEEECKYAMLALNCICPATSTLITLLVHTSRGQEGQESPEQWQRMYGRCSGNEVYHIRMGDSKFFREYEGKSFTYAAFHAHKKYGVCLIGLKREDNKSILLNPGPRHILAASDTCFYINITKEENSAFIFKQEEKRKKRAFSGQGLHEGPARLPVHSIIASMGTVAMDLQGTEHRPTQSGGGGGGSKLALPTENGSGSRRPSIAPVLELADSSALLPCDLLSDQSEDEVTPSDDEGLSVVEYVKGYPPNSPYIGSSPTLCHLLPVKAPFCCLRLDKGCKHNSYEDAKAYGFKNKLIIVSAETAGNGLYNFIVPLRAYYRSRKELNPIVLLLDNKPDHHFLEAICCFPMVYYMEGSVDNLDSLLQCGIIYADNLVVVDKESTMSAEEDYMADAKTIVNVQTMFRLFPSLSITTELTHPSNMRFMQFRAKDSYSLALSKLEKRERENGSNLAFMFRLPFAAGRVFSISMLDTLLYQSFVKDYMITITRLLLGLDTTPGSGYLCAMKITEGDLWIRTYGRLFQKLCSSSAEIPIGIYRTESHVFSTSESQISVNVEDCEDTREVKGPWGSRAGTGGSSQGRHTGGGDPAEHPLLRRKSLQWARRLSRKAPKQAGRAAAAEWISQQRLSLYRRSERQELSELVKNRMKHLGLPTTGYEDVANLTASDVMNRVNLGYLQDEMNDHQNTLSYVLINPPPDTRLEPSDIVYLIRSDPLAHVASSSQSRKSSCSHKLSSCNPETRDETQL
The experiment in a line: Whole-cell patch-clamp recordings in HEK-Slack cells. The settings on record: 25 µM. It counts as cell-based. As to the method: Next, we verified Slack activation by the new compounds using whole‐cell patch‐clamp recordings in HEK‐Slack cells. […] At a holding potential of −70 mV, a series of 500 ms‐long test pulses ranging from −120 to +120 mV in intervals of 20 mV were applied.^[ [16] ^]
HEK‐Slack cells were plated onto poly‐D‐lysine‐coated (100 µg mL^−1, Sigma–Aldrich) coverslips 1 day before experiments and cultured in DMEM containing 10% FBS and 1% penicillin/streptomycin in 5% CO2 at 37 °C. Whole‐cell voltage‐clamp recordings were acquired using an EPC 9 amplifier combined with Patchmaster software (HEKA Electronics, Lambrecht/Pfalz, Germany). Currents were sampled at 20 kHz and filtered at 5 kHz. Data analysis was performed using the Fitmaster software (HEKA Electronics). Membrane potential was held at −70 mV and outward K^+ current (IK) was evoked by depolarizing steps (500 ms duration) ranging from −120 to +120 mV in increments of 20 mV. The pipette solution contained 140 mM KCl, 2 mM MgCl2, 5 mM EGTA, and 10 mM HEPES and was adjusted to pH 7.4 with KOH. The extracellular solution contained 140 mM NaCl, 5 mM KCl, 2 mM CaCl2, 2 mM MgCl2, and 10 mM HEPES and was adjusted to pH 7.4 with NaOH. […] The fold‐increase values in the patch‐clamp experiments were determined by calculating […]. […]

For data set [2], the system named is mice. Put plainly: MC903 model of persistent itch. It counts as in vivo, mouse. The settings on record: i.p. at day 8, vs vehicle. As to the method: We next assessed the efficacy of compound 6 in the treatment of chronic itching. […] These findings are important because they indicate that Slack activators can reduce existing itching.
Chronic itching was induced using the MC903 model.^[ [48] ^] The fur on the dorsolateral aspect of the neck was shaved under brief isoflurane anesthesia. Five days later, 20 µL MC903 (0.2 mM; Calcipotriol, Tocris) solved in absolute ethanol was applied to the skin at the back of the neck under brief anesthesia for 7 consecutive days. On day 8, the mice were habituated for 30 min in a plexiglass cylinder (30 cm in diameter). Compound 6 hydrochloride or vehicle was administered i.p., and 15 min later, spontaneous scratching was recorded over 30 min by videotaping.

Data set [3] relates to mice. The experiment in a line: Pulse oximetry in conscious, freely moving mice. The settings on record: 10 mg kg−1 i.p., observation period of 30 min. As to the method:
To measure cardiovascular function, a pulse oximeter (MouseOX Plus, Starr Life Sciences Corp.) was used in conscious, freely moving mice. After three consecutive days of habituating the mice to the collar clip for at least 30 min, baseline measurements were performed. […] All the datasets were sampled at 1 Hz, error‐corrected according to the manufacturer's instructions, and averaged over 300 s for each time point.

Data set [4] deals with mice. The experiment in a line: Hargreaves test. It counts as in vivo. The settings on record: 10 mg kg−1 i.p., hindpaws, vs vehicle. As to the method:
An infrared heat source (intensity set to 25) was applied to the plantar surface of the hind paw, and the time until the animal elicited a withdrawal response was determined. Each hind paw was measured 4–5 times with a minimum interval of 20 s between measurements, and the mean value was calculated. Measurements that reached the cutoff time (20 s) were excluded.

For data set [5], the system named is mice. The experiment in a line: Von Frey filament test. It counts as in vivo. The settings on record: 10 mg kg−1 i.p., hindpaws, vs vehicle.

As to `O=C(O)COCCN1CCN(C2=Nc3ccccc3Oc3ccc(Cl)cc32)CC1` [Compound 6], in the data set with IB4-binding DRG neurons (cells with recorded APs), the AP amplitude result is listed as “Neither compound 6 nor the vehicle had a significant effect” and the “AP duration at 90% repolarization (APD90)” value is “Neither compound 6 nor the vehicle had a significant effect”. The “resting membrane potential (RMP)” value in the data set on IB4-binding DRG neurons (current injection 200–950 pA) is given as “Neither compound 6 nor the vehicle significantly affected”. Besides, the “number of AP fired” value in the data set on IB4-binding DRG neurons (current injection 200–950 pA, after inflammatory soup) is on record as “profound decrease”. Further, the “rheobase compared to baseline” value with IB4-binding DRG neurons (in the 7 cells with recorded APs) is “visibly, but not significantly, increased”. Also, the “cells that elicited APs” value with IB4-binding DRG neurons (small currents (0–220 pA), vehicle 11 of 11) is reported as 7 of 13. The “tetrodotoxin-resistant Na+ currents” value in data set [1] is given as “did not affect”. Besides, at human Slack (10 mM pipette Na+), the “increase in current densities” value is on record as “more pronounced”. The “current densities compared to baseline” value at human Slack (Na+-free pipette solution) is “increased the current densities compared to baseline”. In the data set with mice [2], the head shaking entry is “significantly ameliorated” and the scratching entry is reported as “significantly ameliorated”. For the same compound, in the data set on mice [3], the breath rate entry is given as “did not affect” and the heart rate entry is on record as “did not affect”. For the same compound, the “thermal sensitivity (Hargreaves test)” value with mice [4] is listed as “Neither mechanical nor thermal sensitivity was altered”. Further, the “mechanical sensitivity (von Frey filament test)” value in the data set with mice [5] is given as “Neither mechanical nor thermal sensitivity was altered”.
